± gives the uncertainty stated by the source.
Assay: xn = mol fraction of the nth substance listed

CC(=O)OCCC(C)C + Brc1ccccc1
viscosity [mPa·s], 101 kPa
Conditions	298.15 K	303.15 K	308.15 K	313.15 K
x1 = 0.0443	1.026 ± 0.007	–	0.952 ± 0.006	–
x1 = 0.0719	–	1.003 ± 0.012	–	0.883 ± 0.011
x1 = 0.1494	0.992 ± 0.006	–	0.925 ± 0.006	–
x1 = 0.1499	–	0.991 ± 0.012	–	0.869 ± 0.011
x1 = 0.2334	–	0.974 ± 0.012	–	0.852 ± 0.011
x1 = 0.2513	0.962 ± 0.006	–	0.898 ± 0.006	–
x1 = 0.3222	–	0.949 ± 0.012	–	0.828 ± 0.011
x1 = 0.3494	0.933 ± 0.006	–	0.875 ± 0.006	–
x1 = 0.4137	–	0.921 ± 0.012	–	0.801 ± 0.011
x1 = 0.4478	0.908 ± 0.006	–	0.853 ± 0.006	–
x1 = 0.4962	0.895 ± 0.006	–	0.842 ± 0.006	–
x1 = 0.509	–	0.893 ± 0.012	–	0.774 ± 0.011
x1 = 0.5517	0.881 ± 0.006	–	0.83 ± 0.006	–
x1 = 0.6182	–	0.859 ± 0.012	–	0.743 ± 0.011
x1 = 0.6512	0.857 ± 0.006	–	0.811 ± 0.006	–
x1 = 0.7358	–	0.823 ± 0.011	–	0.711 ± 0.011
x1 = 0.7497	0.834 ± 0.006	–	0.792 ± 0.006	–
x1 = 0.8504	0.812 ± 0.006	–	0.773 ± 0.005	–
x1 = 0.8603	–	0.787 ± 0.011	–	0.677 ± 0.011
x1 = 0.9487	0.791 ± 0.006	–	0.756 ± 0.005	–

CC(=O)OCCC(C)C + C1CCCCC1
viscosity [mPa·s], 101 kPa
Conditions	298.15 K	308.15 K
x1 = 0.0292	0.862 ± 0.087	0.73 ± 0.073
x1 = 0.0895	0.813 ± 0.082	0.686 ± 0.069
x1 = 0.1448	0.776 ± 0.078	0.653 ± 0.066
x1 = 0.2104	0.74 ± 0.074	0.621 ± 0.062
x1 = 0.3069	0.7 ± 0.07	0.587 ± 0.059
x1 = 0.3512	0.687 ± 0.069	0.577 ± 0.058
x1 = 0.3964	0.676 ± 0.068	0.569 ± 0.057
x1 = 0.4958	0.661 ± 0.066	0.561 ± 0.056
x1 = 0.6222	0.661 ± 0.066	0.57 ± 0.057
x1 = 0.753	0.682 ± 0.068	0.603 ± 0.061
x1 = 0.9257	0.747 ± 0.075	0.69 ± 0.069

CCOP(OCC)OCC + CC#N
298.15 K, 101 kPa
Conditions	viscosity [mPa·s]
x1 = 0.2	0.452 ± 0.005
x1 = 0.4	0.512 ± 0.007
x1 = 0.6	0.573 ± 0.008
x1 = 0.8	0.642 ± 0.01

C[NH+](C)C.[Cl-] + CC(=O)CCC(=O)O
101 kPa, x2 = 0.75
Conditions	viscosity [mPa·s]
293.15 K	74.02 ± 3.1
303.15 K	42.25 ± 1.8
313.15 K	25.57 ± 1.1
323.15 K	17.71 ± 0.73

CC(=O)Nc1ccccc1 + CC(=O)O
viscosity [mPa·s], 101.3 kPa
Conditions	x1 = 0.1	x1 = 0.204	x1 = 0.288
298.15 K	19 ± 0.5	30.2 ± 0.8	43.6 ± 1.1
323.15 K	11.8 ± 0.3	18.2 ± 0.5	27.7 ± 0.7

CC(=O)O.OCCNCCO + CC(=O)O.NCCO
viscosity [mPa·s], 101.3 kPa
Conditions	x2 = 0.132	x2 = 0.2549	x2 = 0.3688	x2 = 0.4761	x2 = 0.5761	x2 = 0.671	x2 = 0.7597	x2 = 0.8444	x2 = 0.9235
293.15 K	2246 ± 150	2377 ± 160	2507 ± 170	2638 ± 170	2769 ± 180	2900 ± 190	3031 ± 200	3161 ± 210	3292 ± 220
298.15 K	1454 ± 89	1544 ± 95	1635 ± 100	1725 ± 110	1815 ± 110	1906 ± 120	1996 ± 130	2086 ± 130	2177 ± 140
303.15 K	965.1 ± 56	1025 ± 60	1084 ± 64	1144 ± 68	1204 ± 72	1263 ± 76	1323 ± 80	1383 ± 84	1442 ± 88
308.15 K	657.7 ± 36	698.1 ± 39	738.5 ± 41	778.9 ± 44	819.3 ± 46	859.7 ± 49	900 ± 52	940.4 ± 54	980.8 ± 57
313.15 K	459.4 ± 24	487.4 ± 26	515.3 ± 27	543.3 ± 29	571.3 ± 31	599.2 ± 33	627.2 ± 34	655.1 ± 36	683.1 ± 38
318.15 K	328.1 ± 17	348 ± 18	367.8 ± 19	387.6 ± 20	407.4 ± 21	427.3 ± 22	447.1 ± 23	466.9 ± 25	486.7 ± 26
323.15 K	239.3 ± 12	253.7 ± 12	268 ± 13	282.3 ± 14	296.7 ± 15	311 ± 16	325.3 ± 16	339.7 ± 17	354 ± 18

CCCCCCCC/C=C\CCCCCCCCO + CC(C)[C@@H]1CC[C@@H](C)C[C@H]1O
100 kPa, x2 = 0.5
Conditions	viscosity [mPa·s]
298.13 K	19.79 ± 0.39
298.15 K	19.76 ± 0.41
303.15 K	14.47 ± 0.27
313.13 K	9.11 ± 0.17
323.12 K	5.98 ± 0.11

CC(=O)OCCC(C)C + CCCCCC
viscosity [mPa·s], 101 kPa
Conditions	298.15 K	308.15 K
x1 = 0.0521	0.303 ± 0.004	0.286 ± 0.004
x1 = 0.149	0.328 ± 0.004	0.313 ± 0.004
x1 = 0.2509	0.358 ± 0.004	0.345 ± 0.004
x1 = 0.3492	0.391 ± 0.004	0.38 ± 0.004
x1 = 0.4851	0.445 ± 0.004	0.435 ± 0.004
x1 = 0.5317	0.466 ± 0.004	0.456 ± 0.004
x1 = 0.5507	0.475 ± 0.004	0.464 ± 0.004
x1 = 0.6504	0.526 ± 0.005	0.514 ± 0.005
x1 = 0.7492	0.585 ± 0.005	0.57 ± 0.005
x1 = 0.8506	0.655 ± 0.005	0.635 ± 0.005
x1 = 0.9546	0.74 ± 0.005	0.711 ± 0.005

CCCCCCCC/C=C\CCCCCCCC(=O)OCC + CCCCCCCCCCCCCCCC
viscosity [mPa·s], 100 kPa
Conditions	x1 = 0.1	x1 = 0.2	x1 = 0.3	x1 = 0.4	x1 = 0.5	x1 = 0.6	x1 = 0.7	x1 = 0.8	x1 = 0.9
293.15 K	3.595 ± 0.046	3.805 ± 0.053	4.056 ± 0.062	4.336 ± 0.073	4.643 ± 0.085	4.964 ± 0.1	5.309 ± 0.12	5.671 ± 0.13	6.032 ± 0.15
298.15 K	3.195 ± 0.041	3.382 ± 0.047	3.599 ± 0.055	3.849 ± 0.065	4.12 ± 0.076	4.405 ± 0.088	4.704 ± 0.1	5.019 ± 0.12	5.335 ± 0.14
303.15 K	2.852 ± 0.037	3.009 ± 0.042	3.2 ± 0.049	3.422 ± 0.058	3.657 ± 0.067	3.906 ± 0.078	4.163 ± 0.091	4.434 ± 0.1	4.708 ± 0.12
308.15 K	2.56 ± 0.033	2.705 ± 0.038	2.873 ± 0.044	3.065 ± 0.052	3.269 ± 0.06	3.485 ± 0.07	3.71 ± 0.081	3.946 ± 0.093	4.185 ± 0.11
313.15 K	2.314 ± 0.03	2.443 ± 0.035	2.589 ± 0.04	2.755 ± 0.047	2.928 ± 0.054	3.113 ± 0.063	3.306 ± 0.072	3.508 ± 0.083	3.715 ± 0.094
318.15 K	2.1 ± 0.027	2.217 ± 0.031	2.351 ± 0.036	2.504 ± 0.042	2.662 ± 0.049	2.83 ± 0.057	3.004 ± 0.066	3.186 ± 0.075	3.372 ± 0.086
323.15 K	1.917 ± 0.025	2.023 ± 0.029	2.144 ± 0.033	2.28 ± 0.039	2.421 ± 0.045	2.571 ± 0.052	2.723 ± 0.06	2.887 ± 0.068	3.053 ± 0.078
